Like-named read-outs stand apart in the source and are kept apart here.
Experiments:
[1] = Stability of DPCP in solvents at 50° C., reverse phase HPLC on a C18 column; assay type: physicochemical
Description: (§1) The compatibility and solubility of DPCP was determined in both isopropyl myristate (IPM) as well as Polysorbate 80 (PS80). […] Next, the stability of DPCP in these solvents was determined. A solution of 0.4% DPCP in isopropyl myristate and a solution of 0.4% DPCP in Polysorbate 80 was placed at 50° C. for two weeks. The stability of DPCP in these solvents was determined using reverse phase HPLC on a C18 column.
For the development of a gel formulation, the stability of DPCP was determined in both Ethanol (ETOH) and Isopropanol (IPA) (0.4% DPCP solutions in each solvent was placed at 50° C. for two weeks; FIG. 2. All solutions contained 0.1% BHT). […] However, DPCP was stable in IPA. The stability of DPCP in the above solvents was determined using reverse phase HPLC on a C18 column.

[2] = tested on: alopecia areata; details: cited from earlier work
[3] = Solubility of DPCP in solvents for gels and ointments; assay type: physicochemical
Description: as §1

[4] = tested on: CTGF mRNA; details: rat skin, cited from earlier work; for reduction of CTGF mRNA: Days 1 and 3, biopsy Day 8, vs dose matched non-targeting control

| Molecule | stability of DPCP ([1]; 0.4% DPCP in Ethanol, 0.1% BHT, in the presence of citric acid, 50° C., two weeks) | stability of DPCP ([1]; 0.4% DPCP in Isopropanol (IPA), 0.1% BHT, 50° C., two weeks) | stability of DPCP ([1]; 0.4% DPCP in Polysorbate 80, 50° C., two weeks) | stability of DPCP ([1]; 0.4% DPCP in isopropyl myristate, 50° C., two weeks) | stability of DPCP ([1]; in PS80 with butylated hydroxytoloune (BHT)) | initial hair regrowth visible after ([2]; alopecia areata patients, 2% sensitizing dose followed by 0.001% challenge doses) | response rates ([2]; in over 25 different studies for treating AA with haptens) | solubility of DPCP ([3]; in Polysorbate 80 (PS80)) | solubility of DPCP ([3]; in isopropyl myristate (IPM)) [% w/w] | reduction of CTGF mRNA ([4]; 300 μg per intradermal injection) [%] | reduction of CTGF mRNA ([4]; 600 μg per intradermal injection) [%] | duration of silencing of CTGF vs. non-targeting control ([4]; following two intradermal injections) |
| --- | --- | --- | --- | --- | --- | --- | --- | --- | --- | --- | --- | --- |
| O=c1c(-c2ccccc2)c1-c1ccccc1 [DPCP, Diphenylcyclopropenone] | Some degradation | stable | some degradation | stable | reduce the amount of degradation | 8-12 weeks | 29-78% | highly soluble | ~1.1 | – | – | – |
| RXI-109: CTGF-targeting sd-rxRNA consisting of sense strand SEQ ID NO:27 (TEG-Chl) and antisense strand SEQ ID NO:28 (sense GCACCUUUCUAGA; antisense UCUAGAAAGGUGCAAACAU; TEG-cholesterol on sense strand; (2)..(2) Modified with 2′Ome; (4)..(10) Modified with 2′Ome; (11)..(13) Phosphorothioate internucleotide bond; (12)..(13) Modified with 2′Ome; (13)..(13) Modified with TEG-Chl; (1)..(1) Modified with P; (1)..(1) Modified with 2′Ome; (2)..(3) Modified with 2′fluoro; (6)..(6) Modified with 2′Ome; (8)..(8) Modified with 2′Ome; (11)..(11) Modified with 2′fluoro; (13)..(13) Modified with 2′Ome; (13)..(19) Phosphorothioate internucleotide bond; (17)..(17) Modified with 2′Ome) | – | – | – | – | – | – | – | – | – | 51 | 67 | sustained for at least five days |

From patent US20180263925A1, “METHODS FOR THE TREATMENT OF ALOPECIA AREATA UTILIZING GENE MODULATION APPROACHES” (RXi Pharmaceuticals Corporation, priority 2014, published 2018)
